This is an account of results in ChEMBL document CHEMBL6121002, “Discovery of novel bicyclic and tricyclic cyclohepta[b]thiophene derivatives as multipotent AChE and BChE inhibitors, in-Vivo and in-Vitro assays, ADMET and molecular docking simulation” (Eur J Med Chem, 2025).

The test system of experiment [1] is Rattus norvegicus. Kind of experiment: Antialzheimer activity in AlCl3-induced learning and memory impairment in Sprague-Dawley rat assessed as time taken for learning at 30 mg/kg, po measured after 5 weeks by MWM test (reference value: 53.67 +/- 1.05 sec). The format is functional.
In experiment [2] the test system is Rattus norvegicus. Kind of experiment: Antialzheimer activity in AlCl3-induced learning and memory impairment in Sprague-Dawley rat assessed as fold increase in dopamine level in brain tissue at 30 mg/kg, po measured after 5 weeks by fluorometric analysis relative to control. The experiment is classed as functional.
Experiment [3] concerns Rattus norvegicus. Kind of experiment: Antialzheimer activity in AlCl3-induced learning and memory impairment in Sprague-Dawley rat assessed as spontaneous alternation at 30 mg/kg, po measured after 5 weeks by Y-maze test (reference value: 50 +/- 2.89 %). The format is functional.
Another experiment deals with Cholinesterase (Homo sapiens, UniProt P06276). Put plainly: Inhibition of BChE (unknown origin) using butyrylthiocholine iodide as substrate incubated for 20 mins by fluorescence based assay.
The next experiment addresses Acetylcholinesterase (Homo sapiens, UniProt P22303). Put plainly: Inhibition of AChE (unknown origin) incubated for 40 mins in presence of substrate.
A short description of experiment [4]: Selectivity index, ratio of IC50 for BChE (unknown origin) using butyrylthiocholine iodide as substrate to IC50 for AChE (unknown origin).
The subject of experiment [5] is Rattus norvegicus. Kind of experiment: Antialzheimer activity in AlCl3-induced learning and memory impairment in Sprague-Dawley rat assessed as time taken for memory at 30 mg/kg, po measured after 5 weeks by MWM test (reference value: 6.833 +/- 0.79 sec). The format is functional.
Experiment [6] deals with Rattus norvegicus. Put plainly: Antialzheimer activity in AlCl3-induced learning and memory impairment in Sprague-Dawley rat assessed as reduction in TNF-alpha level in brain tissue at 30 mg/kg, po measured after 5 weeks by ELISA relative to control. The format is functional. Also noted: scale not given: the % may be the effect or the level left.
Experiment [7] has as its system Rattus norvegicus. Put plainly: Antialzheimer activity in AlCl3-induced learning and memory impairment in Sprague-Dawley rat assessed as increase in time spent in target quadrant at 30 mg/kg, po measured after 5 weeks by […]. The format is functional, organism-based.
In experiment [8] the test system is Rattus norvegicus. Kind of experiment: Antialzheimer activity in AlCl3-induced learning and memory impairment in Sprague-Dawley rat assessed as reduction in escape latency time at 30 mg/kg, po measured after 5 weeks by MWM test relative to control. The experiment is classed as functional. Details: scale not given: the % may be the effect or the level left.
The subject of experiment [9] is Rattus norvegicus. Put plainly: Antialzheimer activity in AlCl3-induced learning and memory impairment in Sprague-Dawley rat assessed as fold increase in norepinephrine level in brain tissue at 30 mg/kg, po measured after 5 weeks by fluorometric analysis relative to control. The format is functional.
Experiment [10] relates to Rattus norvegicus. Kind of experiment: Antialzheimer activity in AlCl3-induced learning and memory impairment in Sprague-Dawley rat assessed as fold increase in 5-HT level in brain tissue at 30 mg/kg, po measured after 5 weeks by fluorometric analysis relative to control. The experiment is classed as functional.
Experiment [11] has as its system Rattus norvegicus. Put plainly: Antialzheimer activity in AlCl3-induced learning and memory impairment in Sprague-Dawley rat assessed as fold increase in time spent in target quadrant at 30 mg/kg, po measured after 5 weeks by […] relative to control. The format is functional.
Experiment [12] concerns Rattus norvegicus. Kind of experiment: Antialzheimer activity in AlCl3-induced learning and memory impairment in Sprague-Dawley rat assessed as fold decrease in AChE level in brain tissue at 30 mg/kg, po measured after 5 weeks by fluorometric analysis relative to control. The format is functional.

Active and inactive are the calls of the source. No cut-off for these calls is given here. A value given as a limit tells only on which side of the number the result lay.

Sequence of Acetylcholinesterase (P22303 whole entry): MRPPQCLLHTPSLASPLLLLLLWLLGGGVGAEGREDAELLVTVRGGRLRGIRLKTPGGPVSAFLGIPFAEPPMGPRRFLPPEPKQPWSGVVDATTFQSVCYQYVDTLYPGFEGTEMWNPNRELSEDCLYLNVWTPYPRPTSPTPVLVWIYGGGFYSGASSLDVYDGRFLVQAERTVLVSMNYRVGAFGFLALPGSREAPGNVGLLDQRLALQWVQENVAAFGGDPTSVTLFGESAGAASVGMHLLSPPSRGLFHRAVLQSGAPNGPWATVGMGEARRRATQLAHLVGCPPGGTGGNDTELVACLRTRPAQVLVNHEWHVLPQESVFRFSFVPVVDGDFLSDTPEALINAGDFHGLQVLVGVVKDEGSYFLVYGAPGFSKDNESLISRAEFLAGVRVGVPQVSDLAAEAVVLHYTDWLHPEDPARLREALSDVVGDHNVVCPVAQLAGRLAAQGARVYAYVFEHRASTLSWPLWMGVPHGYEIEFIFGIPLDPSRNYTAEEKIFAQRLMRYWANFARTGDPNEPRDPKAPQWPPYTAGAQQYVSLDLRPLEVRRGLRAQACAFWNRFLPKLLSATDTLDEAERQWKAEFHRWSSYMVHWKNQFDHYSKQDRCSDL
Sequence of Cholinesterase (P06276 whole entry): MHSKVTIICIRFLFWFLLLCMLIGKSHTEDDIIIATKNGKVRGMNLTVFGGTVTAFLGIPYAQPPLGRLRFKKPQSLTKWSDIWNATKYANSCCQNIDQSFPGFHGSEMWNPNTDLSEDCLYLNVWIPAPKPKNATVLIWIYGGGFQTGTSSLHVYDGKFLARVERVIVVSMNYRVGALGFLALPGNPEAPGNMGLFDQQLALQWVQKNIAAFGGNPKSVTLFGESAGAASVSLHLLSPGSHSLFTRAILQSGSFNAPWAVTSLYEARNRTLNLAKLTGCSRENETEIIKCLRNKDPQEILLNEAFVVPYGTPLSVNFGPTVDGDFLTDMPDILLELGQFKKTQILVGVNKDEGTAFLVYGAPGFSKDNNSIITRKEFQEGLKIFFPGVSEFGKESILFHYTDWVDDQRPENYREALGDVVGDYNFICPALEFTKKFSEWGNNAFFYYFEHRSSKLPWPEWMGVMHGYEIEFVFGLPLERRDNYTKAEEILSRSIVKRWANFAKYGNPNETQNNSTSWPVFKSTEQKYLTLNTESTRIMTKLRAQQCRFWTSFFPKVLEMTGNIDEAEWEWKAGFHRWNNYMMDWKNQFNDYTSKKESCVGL

Regarding `CCOC(=O)c1c(OC(=O)c2ccccc2)sc2c1CCCCC2`, the Time in the experiment on Rattus norvegicus [1] was 37 s; in the experiment on Rattus norvegicus [5], 24.17 s. Moreover, the “fold change (FC)” value in the experiment with Rattus norvegicus [2] was found to be 1.7. Further, the values for the Activity with Rattus norvegicus [3] and in the experiment with Rattus norvegicus [6] were 63.5% and 43.8%, respectively. In addition, the results for the IC50 on Cholinesterase and on Acetylcholinesterase were 7.5 µM and 2.16 µM, respectively. In [4], the Ratio IC50 came to 3.47. Further, the outcome in the experiment with Rattus norvegicus [7] was Active.

Take `COc1ccc(N2C(=O)c3c(sc4c3CCCCC4)OC2c2ccc(Cl)cc2)cc1` (stereo not drawn): the Activity turned out to be 30% with Rattus norvegicus [8], 85% in the experiment with Rattus norvegicus [3] and 70.8% in the experiment with Rattus norvegicus [6]. Moreover, the Time was determined as 16.33 s in the experiment with Rattus norvegicus [1] and 41.67 s with Rattus norvegicus [5]. Also, the “fold change (FC)” value in the experiment on Rattus norvegicus [2] was found to be 3.8; in the experiment on Rattus norvegicus [9], 2.9; in the experiment with Rattus norvegicus [10], 5.1; in the experiment on Rattus norvegicus [11], 5.9. For the same molecule, the figures for the IC50 at Cholinesterase and on Acetylcholinesterase were 7.76 µM and 3.14 µM, respectively. Also, the Ratio IC50 in [4] was determined as 2.47. Besides, the result in the experiment with Rattus norvegicus [7] was Active.

As to `CCOC(=O)c1c(OC(=O)c2ccc(Cl)cc2)sc2c1CCCCC2`, the Time worked out at 34 s in the experiment with Rattus norvegicus [1] and 27.67 s in the experiment with Rattus norvegicus [5]. Moreover, the “fold change (FC)” value in the experiment with Rattus norvegicus [2] came to 1.7. The figures for the Activity with Rattus norvegicus [3] and in the experiment on Rattus norvegicus [6] were 70.67% and 49.2%, respectively. Besides, the IC50 against Cholinesterase came to 2.9 µM; at Acetylcholinesterase, 1.05 µM. In experiment [4], the Ratio IC50 turned out to be 2.76. The result with Rattus norvegicus [7] was Active.

On to `COc1cc2c(cc1OC)C(=O)C(CC1CCN(Cc3ccccc3)CC1)C2` (stereo not drawn) [DONEPEZIL], for which the figures for the Activity in the experiment on Rattus norvegicus [8], with Rattus norvegicus [3] and in the experiment on Rattus norvegicus [6] were 28%, 85% and 63%, respectively. In addition, the figures for the Time with Rattus norvegicus [1] and in the experiment on Rattus norvegicus [5] were 14.78 s and 42.67 s, respectively. Further, in the experiment with Rattus norvegicus [7], the outcome was Active.

As to `O=C1c2c(sc3c2CCCCC3)OC(c2ccccc2)N1c1ccc(Cl)cc1` (stereo not drawn), the Activity result in the experiment on Rattus norvegicus [8] is recorded as “<=47%”; with Rattus norvegicus [3] it was 71.5%; with Rattus norvegicus [6], 54.5%. The “fold change (FC)” value came out at 2.3 with Rattus norvegicus [12], 1.7 in the experiment on Rattus norvegicus [2], 1.7 with Rattus norvegicus [9] and 5.2 in the experiment with Rattus norvegicus [11]. For the same molecule, the Time was found to be 25.67 s in the experiment with Rattus norvegicus [1] and 35.5 s in the experiment on Rattus norvegicus [5]. Further, the half-maximal inhibitory concentration (IC50) on Cholinesterase turned out to be 24.7 µM; on Acetylcholinesterase, 9.48 µM. The Ratio IC50 in [4] was 2.6. In the experiment with Rattus norvegicus [7], the outcome was Active.

Turning to `O=C1c2c(sc3c2CCCCC3)OC(c2ccc(Cl)cc2)N1c1ccccc1` (stereo not drawn), the values for the Activity entry in the experiment with Rattus norvegicus [8], with Rattus norvegicus [3] and in the experiment with Rattus norvegicus [6] were “<=46%”, 73.83% and 54.6%, respectively. For the same molecule, the “fold change (FC)” value with Rattus norvegicus [12] is reported as 2.3; in the experiment on Rattus norvegicus [2], 1.7; with Rattus norvegicus [9], 1.7; in the experiment on Rattus norvegicus [11], 5.4. The Time in the experiment with Rattus norvegicus [1] amounted to 24.67 s; in the experiment on Rattus norvegicus [5], 36.83 s. Moreover, the IC50 against Cholinesterase amounted to 6.9 µM; on Acetylcholinesterase, 0.55 µM. Further, the Ratio IC50 in [4] turned out to be 12.6. For the same molecule, in the experiment with Rattus norvegicus [7], the result was Active.

`COc1ccc(N2C(=O)c3c(sc4c3CCCCC4)OC2c2ccccc2)cc1` (stereo not drawn): the Activity entry with Rattus norvegicus [8] is recorded as “<=43%”; with Rattus norvegicus [3], 74.33%; in the experiment with Rattus norvegicus [6], 62.6%. The “fold change (FC)” value was 2.3 in the experiment on Rattus norvegicus [12], 3.5 with Rattus norvegicus [2], 1.7 with Rattus norvegicus [9] and 5.6 in the experiment on Rattus norvegicus [11]. The Time was 23 s in the experiment with Rattus norvegicus [1] and 38.17 s in the experiment on Rattus norvegicus [5]. Besides, the IC50 at Cholinesterase was 11 µM; on Acetylcholinesterase, 4.05 µM. Besides, the Ratio IC50 in experiment [4] came out at 2.73. In addition, the outcome in the experiment with Rattus norvegicus [7] was Active.

`O=C1c2c(sc3c2CCCCC3)OC(c2ccc(Cl)cc2)N1c1ccc(Cl)cc1` (stereo not drawn): the results for the Activity in the experiment on Rattus norvegicus [8], in the experiment with Rattus norvegicus [3] and with Rattus norvegicus [6] were 22%, 83.33% and 73.9%, respectively. Further, the figures for the Time with Rattus norvegicus [1] and in the experiment with Rattus norvegicus [5] were 11.83 s and 46.5 s, respectively. Also, the “fold change (FC)” value in the experiment on Rattus norvegicus [2] is 4.2; in the experiment with Rattus norvegicus [9] it was roughly 3.2; in the experiment with Rattus norvegicus [10] it was 5.8; with Rattus norvegicus [11], 6.5. In addition, the figures for the IC50 on Cholinesterase and at Acetylcholinesterase were 308 µM and 12.6 µM, respectively. Further, the Ratio IC50 in experiment [4] is 24.4. The outcome in the experiment with Rattus norvegicus [7] was Active.

For `O=C1c2c(sc3c2CCCCC3)OC(c2ccccc2)N1c1ccccc1` (stereo not drawn), the Activity came out at 32% in the experiment with Rattus norvegicus [8], 80% in the experiment with Rattus norvegicus [3] and 61.2% with Rattus norvegicus [6]. The “fold change (FC)” value in the experiment on Rattus norvegicus [12] is given as 3.5; with Rattus norvegicus [2], 3.8; with Rattus norvegicus [9], 2.2; in the experiment on Rattus norvegicus [10], 4.5; with Rattus norvegicus [11], 5.3. Also, the Time in the experiment with Rattus norvegicus [1] is recorded as 17 s; in the experiment with Rattus norvegicus [5] it was 35.83 s. Besides, the figures for the IC50 against Cholinesterase and at Acetylcholinesterase were 2.48 µM and 0.51 µM, respectively. For the same molecule, the Ratio IC50 in experiment [4] turned out to be 4.86. For the same molecule, the outcome with Rattus norvegicus [7] was Active.
